Data reported in ChEMBL document CHEMBL1201861, “Genomics of Drug Sensitity in Cancer screening data, Wellcome Trust Sanger Institute”.

Tests used:
Experiment in all cases: cells
Calu-6 = format: functional, cell-based, Homo sapiens; conditions: Homo sapiens, Calu-6;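 also: growth of human Calu-6 cells, read out by a cell viability assay, IC50 marking inhibition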
Description: SANGER: Inhibition of human Calu-6 cell growth in a cell viability assay.

D-263MG = format: functional, cell-based, Homo sapiens; conditions: Homo sapiens, D-263MG
Description: SANGER: Inhibition of human D-263MG cell growth in a cell viability assay.

DB = format: functional, cell-based, Homo sapiens; conditions: Homo sapiens, DB
Description: SANGER: Inhibition of human DB cell growth in a cell viability assay.

DMS-79 = format: functional, cell-based, Homo sapiens; conditions: Homo sapiens, DMS-79;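 also: growth inhibition measured with a cell viability assay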
Description: SANGER: Inhibition of human DMS-79 cell growth in a cell viability assay.

DU-4475 = format: functional, cell-based, Homo sapiens; conditions: Homo sapiens, DU-4475
Description: SANGER: Inhibition of human DU-4475 cell growth in a cell viability assay.

EW-1 = format: functional, cell-based, Homo sapiens; conditions: Homo sapiens, EW-1;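 also: growth inhibition of the human EW-1 cell line, read out by a cell viability assay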
Description: SANGER: Inhibition of human EW-1 cell growth in a cell viability assay.

HCC2218 = format: functional, cell-based, Homo sapiens; conditions: Homo sapiens, HCC2218;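 also: cell viability assay read-out, with IC50 given as the concentration that inhibits growth of the cell line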
Description: SANGER: Inhibition of human HCC2218 cell growth in a cell viability assay.

HEL = format: functional, cell-based, Homo sapiens; conditions: Homo sapiens, HEL;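 also: growth inhibition of HEL cells, read out with a cell viability assay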
Description: SANGER: Inhibition of human HEL cell growth in a cell viability assay.

HT = format: functional, cell-based, Homo sapiens; conditions: Homo sapiens, HT
Description: SANGER: Inhibition of human HT cell growth in a cell viability assay.

HT-144 = format: functional, cell-based, Homo sapiens; conditions: Homo sapiens, HT-144
Description: SANGER: Inhibition of human HT-144 cell growth in a cell viability assay.

HuTu80 = format: functional, cell-based, Homo sapiens, HUTU-80; conditions: Homo sapiens, HuTu80;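 also: growth inhibition of HuTu80 human cells, determined with a cell viability readout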
Description: SANGER: Inhibition of human HUTU-80 cell growth in a cell viability assay.

JAR = format: functional, cell-based, Homo sapiens; conditions: Homo sapiens, JAR;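 also: growth inhibition of human JAR cells determined with a cell viability assay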
Description: SANGER: Inhibition of human JAR cell growth in a cell viability assay.

KM12 = format: functional, cell-based, Homo sapiens; conditions: Homo sapiens, KM12;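 also: KM12 cell growth inhibition, read out with a cell viability assay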
Description: SANGER: Inhibition of human KM12 cell growth in a cell viability assay.

LB996-RCC = format: functional, cell-based, Homo sapiens; conditions: Homo sapiens, LB996-RCC
Description: SANGER: Inhibition of human LB996-RCC cell growth in a cell viability assay.

LC-2-ad = format: functional, cell-based, Homo sapiens; conditions: Homo sapiens, LC-2-ad;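 also: growth inhibition of human LC-2-ad cells, read out with a cell viability assay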
Description: SANGER: Inhibition of human LC-2-ad cell growth in a cell viability assay.

LNCaP-Clone-FGC = format: functional, cell-based, Homo sapiens; conditions: Homo sapiens, LNCaP-Clone-FGC
Description: SANGER: Inhibition of human LNCaP-Clone-FGC cell growth in a cell viability assay.

MZ1-PC = format: functional, cell-based, Homo sapiens; conditions: Homo sapiens, MZ1-PC;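 also: cell viability assay measuring growth inhibition of human MZ1-PC cells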
Description: SANGER: Inhibition of human MZ1-PC cell growth in a cell viability assay.

MZ7-mel = format: functional, cell-based, Homo sapiens; conditions: Homo sapiens, MZ7-mel;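 also: growth inhibition of human MZ7-mel cells, measured by a cell viability assay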
Description: SANGER: Inhibition of human MZ7-mel cell growth in a cell viability assay.

NB10 = format: functional, cell-based, Homo sapiens; conditions: Homo sapiens, NB10;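 also: growth inhibition of NB10 cells, read out by a cell viability assay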
Description: SANGER: Inhibition of human NB10 cell growth in a cell viability assay.

NB5 = format: functional, cell-based, Homo sapiens; conditions: Homo sapiens, NB5;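 also: growth inhibition of NB5 cells, read out as cell viability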
Description: SANGER: Inhibition of human NB5 cell growth in a cell viability assay.

NCI-H1092 = format: functional, cell-based, Homo sapiens; conditions: Homo sapiens, NCI-H1092;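 also: cell growth inhibition measured with a cell viability assay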
Description: SANGER: Inhibition of human NCI-H1092 cell growth in a cell viability assay.

NCI-H2126 = format: functional, cell-based, Homo sapiens; conditions: Homo sapiens, NCI-H2126;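 also: growth inhibition of the cancer cell line, determined with a cell viability readout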
Description: SANGER: Inhibition of human NCI-H2126 cell growth in a cell viability assay.

NCI-H226 = format: functional, cell-based, Homo sapiens; conditions: Homo sapiens, NCI-H226;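 also: cell viability read-out used to gauge growth inhibition of the cells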
Description: SANGER: Inhibition of human NCI-H226 cell growth in a cell viability assay.

NCI-H446 = format: functional, cell-based, Homo sapiens; conditions: Homo sapiens, NCI-H446;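 also: growth inhibition of NCI-H446 cells determined by a cell viability assay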
Description: SANGER: Inhibition of human NCI-H446 cell growth in a cell viability assay.

NCI-H69 = format: functional, cell-based, Homo sapiens; conditions: Homo sapiens, NCI-H69;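 also: growth inhibition of the cell line, read out with a cell viability assay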
Description: SANGER: Inhibition of human NCI-H69 cell growth in a cell viability assay.

SNU-5 = format: functional, cell-based, Homo sapiens; conditions: Homo sapiens, SNU-5;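 also: cell viability readout used to measure growth inhibition in human NCI-SNU-5 cells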
Description: SANGER: Inhibition of human NCI-SNU-5 cell growth in a cell viability assay.

NH-12 = format: functional, cell-based, Homo sapiens; conditions: Homo sapiens, NH-12;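 also: growth inhibition of NH-12 cells, read out with a cell viability assay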
Description: SANGER: Inhibition of human NH-12 cell growth in a cell viability assay.

QIMR-WIL = format: functional, cell-based, Homo sapiens; conditions: Homo sapiens, QIMR-WIL;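 also: growth inhibition of QIMR-WIL cells, read out with a cell viability assay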
Description: SANGER: Inhibition of human QIMR-WIL cell growth in a cell viability assay.

RS4-11 = format: functional, cell-based, Homo sapiens; conditions: Homo sapiens, RS4-11;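 also: growth inhibition of RS4-11 cells, read out by a cell viability assay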
Description: SANGER: Inhibition of human RS4-11 cell growth in a cell viability assay.

RXF 393 = format: functional, cell-based, Homo sapiens; conditions: Homo sapiens, RXF 393;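 also: growth inhibition of human RXF 393 cells, read out with a cell viability assay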
Description: SANGER: Inhibition of human RXF393 cell growth in a cell viability assay.

Ramos-2G6-4C10 = format: functional, cell-based, Homo sapiens; conditions: Homo sapiens, Ramos-2G6-4C10;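 also: growth inhibition of the cell line, measured by a cell viability read-out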
Description: SANGER: Inhibition of human Ramos-2G6-4C10 cell growth in a cell viability assay.

SCH = format: functional, cell-based, Homo sapiens; conditions: Homo sapiens, SCH;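 also: growth inhibition of human SCH cells, read out in a cell viability assay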
Description: SANGER: Inhibition of human SCH cell growth in a cell viability assay.

SJSA-1 = format: functional, cell-based, Homo sapiens; conditions: Homo sapiens, SJSA-1;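 also: growth inhibition of human SJSA-1 cells, read out through a cell viability measurement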
Description: SANGER: Inhibition of human SJSA-1 cell growth in a cell viability assay.

SK-LMS-1 = format: functional, cell-based, Homo sapiens; conditions: Homo sapiens, SK-LMS-1;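 also: growth inhibition of human SK-LMS-1 cells, read out with a cell viability assay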
Description: SANGER: Inhibition of human SK-LMS-1 cell growth in a cell viability assay.

SK-MEL-2 = format: functional, cell-based, Homo sapiens; conditions: Homo sapiens, SK-MEL-2;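 also: growth inhibition of human SK-MEL-2 cells measured with a cell viability assay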
Description: SANGER: Inhibition of human SK-MEL-2 cell growth in a cell viability assay.

SK-PN-DW = format: functional, cell-based, Homo sapiens; conditions: Homo sapiens, SK-PN-DW;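 also: growth inhibition measured with a viability assay on these cells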
Description: SANGER: Inhibition of human SK-PN-DW cell growth in a cell viability assay.

SW684 = format: functional, cell-based, Homo sapiens; conditions: Homo sapiens, SW684;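 also: growth inhibition of human SW684 cells, measured by a cell viability assay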
Description: SANGER: Inhibition of human SW684 cell growth in a cell viability assay.

A498 = format: functional, cell-based, Homo sapiens; conditions: Homo sapiens, A498;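 also: growth inhibition of human A498 cells, read out with a cell viability assay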
Description: SANGER: Inhibition of human A498 cell growth in a cell viability assay.

ACN = format: functional, cell-based, Homo sapiens; conditions: Homo sapiens, ACN;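 also: growth inhibition of the human ACN cell line, read out via cell viability testing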
Description: SANGER: Inhibition of human ACN cell growth in a cell viability assay.

AM-38 = format: functional, cell-based, Homo sapiens; conditions: Homo sapiens, AM-38;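 also: growth inhibition of AM-38 cells of human origin, read out by a cell viability assay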
Description: SANGER: Inhibition of human AM-38 cell growth in a cell viability assay.

BT-474 = format: functional, cell-based, Homo sapiens; conditions: Homo sapiens, BT-474
Description: SANGER: Inhibition of human BT-474 cell growth in a cell viability assay.

Becker = format: functional, cell-based, Homo sapiens; conditions: Homo sapiens, Becker;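 also: growth inhibition of Becker cells, read out with a cell viability assay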
Description: SANGER: Inhibition of human Becker cell growth in a cell viability assay.

C8166 = format: functional, cell-based, Homo sapiens; conditions: Homo sapiens, C8166;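 also: growth inhibition of human C8166 cells measured by a cell viability assay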
Description: SANGER: Inhibition of human C8166 cell growth in a cell viability assay.

TE-10 = format: functional, cell-based, Homo sapiens; conditions: Homo sapiens, TE-10;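 also: growth inhibition of TE-10 cells, measured by a cell viability assay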
Description: SANGER: Inhibition of human TE-10 cell growth in a cell viability assay.

TE-6 = format: functional, cell-based, Homo sapiens; conditions: Homo sapiens, TE-6;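 also: growth inhibition of TE-6 cells, read out with a cell viability assay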
Description: SANGER: Inhibition of human TE-6 cell growth in a cell viability assay.

TE-9 = format: functional, cell-based, Homo sapiens; conditions: Homo sapiens, TE-9;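 also: cell growth inhibition, measured with a cell viability readout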
Description: SANGER: Inhibition of human TE-9 cell growth in a cell viability assay.

U-87 MG = format: functional, cell-based, Homo sapiens, U-87MG ATCC; conditions: Homo sapiens, U-87 MG;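 also: growth inhibition of the cells measured with a viability assay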
Description: SANGER: Inhibition of human U-87-MG cell growth in a cell viability assay.

UACC-257 = format: functional, cell-based, Homo sapiens; conditions: Homo sapiens, UACC-257
Description: SANGER: Inhibition of human UACC-257 cell growth in a cell viability assay.

O=C(O)c1ccc(-c2c[nH]c3ncc(-c4ccccc4)cc23)cc1C1CCCC1 [GSK-650394]
IC50 (Calu-6): > 16 µM
IC50 (D-263MG): 13.7 µM
IC50 (DB): > 16 µM
IC50 (DMS-79): > 16 µM
IC50 (DU-4475): > 16 µM
IC50 (EW-1): > 16 µM
IC50 (HCC2218): > 16 µM
IC50 (HEL): 10.7 µM
IC50 (HT): > 16 µM
IC50 (HT-144): > 16 µM
IC50 (HuTu80): 1.3 µM
IC50 (JAR): > 16 µM
IC50 (KM12): 0.851 µM
IC50 (LB996-RCC): > 16 µM
IC50 (LC-2-ad): > 16 µM
IC50 (LNCaP-Clone-FGC): > 16 µM
IC50 (MZ1-PC): > 16 µM
IC50 (MZ7-mel): > 16 µM
IC50 (NB10): > 16 µM
IC50 (NB5): > 16 µM
IC50 (NCI-H1092): > 16 µM
IC50 (NCI-H2126): > 16 µM
IC50 (NCI-H226): 15.6 µM
IC50 (NCI-H446): > 16 µM
IC50 (NCI-H69): 7.67 µM
IC50 (SNU-5): > 16 µM
IC50 (NH-12): 12.3 µM
IC50 (QIMR-WIL): 8.8 µM
IC50 (RS4-11): 8.96 µM
IC50 (RXF 393): > 16 µM
IC50 (Ramos-2G6-4C10): > 16 µM
IC50 (SCH): > 16 µM
IC50 (SJSA-1): 15.1 µM
IC50 (SK-LMS-1): 5.38 µM
IC50 (SK-MEL-2): > 16 µM
IC50 (SK-PN-DW): 14.2 µM
IC50 (SW684): > 16 µM
IC50 (A498): > 16 µM
IC50 (ACN): > 16 µM
IC50 (AM-38): > 16 µM
IC50 (BT-474): > 16 µM
IC50 (Becker): > 16 µM
IC50 (C8166): > 16 µM
IC50 (TE-10): 14.5 µM
IC50 (TE-6): > 16 µM
IC50 (TE-9): > 16 µM
IC50 (U-87 MG): > 16 µM
IC50 (UACC-257): > 16 µM

COc1cccc2c1C(=O)c1c(O)c3c(c(O)c1C2=O)C[C@@](O)(C(=O)CO)C[C@@H]3O[C@H]1C[C@H](N)[C@H](O)[C@H](C)O1 [DOXORUBICIN]
IC50 (Calu-6): 0.254 µM
IC50 (D-263MG): 0.306 µM
IC50 (DB): 0.162 µM
IC50 (DMS-79): > 1.02 µM
IC50 (DU-4475): 0.0121 µM
IC50 (EW-1): 0.0613 µM
IC50 (HCC2218): 0.182 µM
IC50 (HEL): 0.175 µM
IC50 (HT): 0.405 µM
IC50 (HT-144): 0.00351 µM
IC50 (HuTu80): 0.00212 µM
IC50 (JAR): 0.626 µM
IC50 (KM12): 0.218 µM
IC50 (LB996-RCC): 0.0785 µM
IC50 (LC-2-ad): 0.00507 µM
IC50 (LNCaP-Clone-FGC): 0.204 µM
IC50 (MZ1-PC): 0.0238 µM
IC50 (MZ7-mel): 0.113 µM
IC50 (NB10): 0.188 µM
IC50 (NB5): 0.36 µM
IC50 (NCI-H1092): 0.738 µM
IC50 (NCI-H2126): 0.192 µM
IC50 (NCI-H226): 0.417 µM
IC50 (NCI-H446): > 1.02 µM
IC50 (NCI-H69): 0.569 µM
IC50 (SNU-5): 0.57 µM
IC50 (NH-12): 0.076 µM
IC50 (QIMR-WIL): 0.0207 µM
IC50 (RS4-11): 0.0191 µM
IC50 (RXF 393): 0.335 µM
IC50 (Ramos-2G6-4C10): 0.295 µM
IC50 (SCH): > 1.02 µM
IC50 (SJSA-1): 0.111 µM
IC50 (SK-LMS-1): 0.0532 µM
IC50 (SK-MEL-2): 0.23 µM
IC50 (SK-PN-DW): 0.0257 µM
IC50 (SW684): > 1.02 µM
IC50 (A498): > 1.02 µM
IC50 (ACN): 0.0311 µM
IC50 (AM-38): 0.282 µM
IC50 (BT-474): 0.779 µM
IC50 (Becker): 0.522 µM
IC50 (C8166): 0.0333 µM
IC50 (TE-10): 0.113 µM
IC50 (TE-6): 0.47 µM
IC50 (TE-9): 0.257 µM
IC50 (U-87 MG): 0.346 µM
IC50 (UACC-257): 0.362 µM

C=C(c1ccc(C(=O)O)cc1)c1cc2c(cc1C)C(C)(C)CCC2(C)C [BEXAROTENE]
IC50 (Calu-6): > 8 µM
IC50 (D-263MG): > 8 µM
IC50 (DB): > 8 µM
IC50 (DMS-79): > 8 µM
IC50 (DU-4475): > 8 µM
IC50 (EW-1): > 8 µM
IC50 (HCC2218): > 8 µM
IC50 (HEL): > 8 µM
IC50 (HT): > 8 µM
IC50 (HT-144): > 8 µM
IC50 (HuTu80): > 8 µM
IC50 (JAR): > 8 µM
IC50 (KM12): > 8 µM
IC50 (LB996-RCC): > 8 µM
IC50 (LC-2-ad): > 8 µM
IC50 (LNCaP-Clone-FGC): > 8 µM
IC50 (MZ1-PC): > 8 µM
IC50 (MZ7-mel): > 8 µM
IC50 (NB10): > 8 µM
IC50 (NB5): > 8 µM
IC50 (NCI-H1092): > 8 µM
IC50 (NCI-H2126): > 8 µM
IC50 (NCI-H226): > 8 µM
IC50 (NCI-H446): > 8 µM
IC50 (NCI-H69): > 8 µM
IC50 (SNU-5): > 8 µM
IC50 (NH-12): > 8 µM
IC50 (QIMR-WIL): > 8 µM
IC50 (RS4-11): > 8 µM
IC50 (RXF 393): > 8 µM
IC50 (Ramos-2G6-4C10): > 8 µM
IC50 (SCH): > 8 µM
IC50 (SJSA-1): > 8 µM
IC50 (SK-LMS-1): 7.62 µM
IC50 (SK-MEL-2): > 8 µM
IC50 (SK-PN-DW): > 8 µM
IC50 (SW684): > 8 µM
IC50 (A498): > 8 µM
IC50 (ACN): > 8 µM
IC50 (AM-38): > 8 µM
IC50 (BT-474): > 8 µM
IC50 (Becker): > 8 µM
IC50 (C8166): > 8 µM
IC50 (TE-10): > 8 µM
IC50 (TE-6): > 8 µM
IC50 (TE-9): > 8 µM
IC50 (U-87 MG): > 8 µM
IC50 (UACC-257): > 8 µM
